Measurements from US20240197695A1, “COMPOUND FOR PREVENTION OR TREATMENT OF KIDNEY DISEASE” (ONCOCROSS CO.,LTD, priority 2021, published 2024).
Marks after values point to notes of the source that are not given here.

Assays:
Type in all cases: in vivo, mice (C57BL/6)
[1] = Body weights of mice in diabetic nephrosis model; conditions: 2 mg/kg/day oral
Protocol: (§1) STZ (Sigma-aldrich, S0130, 40 mg/kg b.w., in 0.1 M citrate buffer pH 4.5) was intraperitoneally administered to 9-week-old male mice (C57BL/6) once/1 day for 5 days to perform a first disease induction. After 7 weeks of the first induction, a second induction was performed using the same method as the first induction. For 5 days of an STZ administration period for the first induction, 10% sucrose was administered as drinking water. In addition, after 14 days of the second administration, blood glucose levels were confirmed to confirm the induction rate, and the induced animals were separated into groups. Experimental substances (R)-4-{(R)-1-[7-(3,4,5-trimethoxy-phenyl)-[1,6] naphthyridin-5-yloxy]-ethyl}pyrrolidin-2-one (BI-1002494) and cromolyn (OC-101) were administered orally into the stomach at 10 mL/kg using an administration syringe (sonde) before 16:00 daily for 12 weeks at a frequency of 7 days/week at doses shown in Table 1 below, and dexamethasone was orally administered as a positive control substance.

[2] = test system: diabetic nephrosis animal models; experiment: Changes in blood glucose levels (tail vein, blood glucose level meter); conditions: 2 mg/kg/day oral
Protocol: as §1
Before disease induction, excluding week 9 of administration of experimental substances to mice in each group of Example 1 above, after 2 weeks after the first induction (based on a first administration date), and after 6 weeks and 2 weeks of the second induction (based on the first administration date), blood was collected from the tail vein and blood glucose levels were measured using a blood glucose level meter (Accu-Check, Roche), and fasting was performed for 4 hours from 9:30 a.m. to 1:30.

[3] = Drinking water intake of mice in diabetic nephrosis model; set-up: unit not given here; conditions: 2 mg/kg/day oral
Protocol: as §1

[4] = Feed intake of mice in diabetic nephrosis model; set-up: Feed intake, Mean: unit not given here; conditions: 2 mg/kg/day oral
Protocol: as §1

[5] = test system: diabetic nephrosis animal models; experiment: Blood insulin (Mouse Insulin ELISA KIT) and HOMA-IR; conditions: 2 mg/kg/day oral, after observation period, fasted
Protocol: as §1
(§2) After the observation period for mice of each group in Example 1 was terminated, all surviving animals were fasted in the same manner as when measuring blood glucose levels, and then anesthetized by inhaling isoflurane, and blood was collected from the abdominal vena cava through laparotomy. After the blood collection was completed, the veins and arteries were cut under anesthesia and exsanguinated. The collected blood was left at room temperature for 30 minutes or more and then centrifuged at 3,000 rpm for 20 minutes. Thereafter, glucose, Blood urea nitrogen (BUN), and creatinine were analyzed using an automated blood biochemistry analyzer (Hitachi 3100, Hitachi Co. Ltd., Japan). Indoxyl sulfate (a substance that was mainly produced in the intestines to cause renal injury, and a substance that caused end-stage renal failure by advancing renal function damage in patients with renal failure during hemodialysis) was analyzed using LC MS/MS. In addition, blood insulin was analyzed according to a method represented by a commercial Mouse Insulin ELISA KIT (#AKRIN-011T, Sibayagi Co. Ltd., Japan).

[6] = test system: diabetic nephrosis animal models; experiment: Histopathological change (H&E) in liver, kidney, pancreas; conditions: G3, 2 mg/kg oral; count in group of 10 animals
Protocol: as §1
At the end of the observation period, the mice in each group of Example 1 were confirmed to be dead, and the liver, kidney, and pancreas were extracted and fixed with 10% neutral buffered formalin (NBF) in at least 20 times the tissue volume. The fixed tissue was sectioned to a thickness of approximately 4 mm and then produced into a paraffin block through general tissue processing and embedding processes. Thereafter, the tissue was sectioned to a thickness of 4 μm using a rotary microtome, and then H&E staining was performed, and histopathological changes were observed.

[7] = test system: diabetic nephrosis animal models; experiment: Blood indoxyl sulfate by LC MS/MS; conditions: 2 mg/kg/day oral, after observation period, fasted
Protocol: as §1, §2

[8] = test system: diabetic nephrosis animal models; conditions: 2 mg/kg/day oral, after observation period, fasted
Protocol: as §1, §2

Question: With `C[C@@H]1C[C@H]2[C@@H]3CCC4=CC(=O)C=C[C@]4(C)[C@@]3(F)[C@@H](O)C[C@]2(C)[C@@]1(O)C(=O)CO` [Dexa, dexamethasone, reference compound] as the molecule, how does the Body weight, Mean ([1]; week 0) read?
Answer: 24 g

Question: What about the Body weight, Mean ([1]; week 1) of the same molecule?
Answer: 23.5 g

Question: What about the Body weight, Mean ([1]; week 2) of the same molecule?
Answer: 23.6 g

Question: What about the Body weight, Mean ([1]; week 3) of the same molecule?
Answer: 23.6 g

Question: What about the Body weight, Mean ([1]; week 4) of the same molecule?
Answer: 23.6 g

Question: And the Body weight, Mean ([1]; week 5)?
Answer: 23.7 g

Question: What about the Body weight, Mean ([1]; week 6) of the same molecule?
Answer: 23.6 g

Question: What about the Body weight, Mean ([1]; week 7) of the same molecule?
Answer: 23.8 g

Question: And the Body weight, Mean ([1]; week 8)?
Answer: 23.6 g

Question: And the Body weight, Mean ([1]; week 10)?
Answer: 23.3 g

Question: And the “Blood glucose level, Mean” value ([2]; week 0, 4 h fasting, in mg/dL (unit assumed))?
Answer: 307.1

Question: And the “Blood glucose level, Mean” value ([2]; week 2, 4 h fasting, in mg/dL (unit assumed))?
Answer: 309.1

Question: And the “Blood glucose level, Mean” value ([2]; week 4, 4 h fasting, in mg/dL (unit assumed))?
Answer: 329.2

Question: And the “Blood glucose level, Mean” value ([2]; week 6, 4 h fasting, in mg/dL (unit assumed))?
Answer: 336.9

Question: What about the “Blood glucose level, Mean” value ([2]; week 8, 4 h fasting) of the same molecule?
Answer: 286.1^#

Question: What about the “Blood glucose level, Mean” value ([2]; week 10, 4 h fasting, in mg/dL (unit assumed)) of the same molecule?
Answer: 331.4

Question: What about the “Drinking water intake, Mean” value ([3]; week 0) of the same molecule?
Answer: 7.07

Question: And the “Drinking water intake, Mean” value ([3]; week 1)?
Answer: 7.73

Question: And the “Drinking water intake, Mean” value ([3]; week 2)?
Answer: 7.06

Question: What about the “Drinking water intake, Mean” value ([3]; week 3) of the same molecule?
Answer: 7.69

Question: What about the “Drinking water intake, Mean” value ([3]; week 4) of the same molecule?
Answer: 7.69

Question: What about the “Drinking water intake, Mean” value ([3]; week 5) of the same molecule?
Answer: 7.10

Question: And the “Drinking water intake, Mean” value ([3]; week 6)?
Answer: 7.35

Question: What about the “Drinking water intake, Mean” value ([3]; week 7) of the same molecule?
Answer: 7.19

Question: What about the “Drinking water intake, Mean” value ([3]; week 8) of the same molecule?
Answer: 7.83

Question: What about the “Drinking water intake, Mean” value ([3]; week 9) of the same molecule?
Answer: 7.45

Question: And the “Drinking water intake, Mean” value ([3]; week 10)?
Answer: 7.19

Question: And the “Feed intake, Mean” value ([4]; week 0)?
Answer: 6.71

Question: What about the “Feed intake, Mean” value ([4]; week 1) of the same molecule?
Answer: 5.48

Question: What about the “Feed intake, Mean” value ([4]; week 2) of the same molecule?
Answer: 5.80

Question: And the “Feed intake, Mean” value ([4]; week 3)?
Answer: 5.84

Question: What about the “Feed intake, Mean” value ([4]; week 4) of the same molecule?
Answer: 5.89

Question: What about the “Feed intake, Mean” value ([4]; week 5) of the same molecule?
Answer: 5.65

Question: What about the “Feed intake, Mean” value ([4]; week 6) of the same molecule?
Answer: 5.30

Question: And the “Feed intake, Mean” value ([4]; week 7)?
Answer: 5.56

Question: And the “Feed intake, Mean” value ([4]; week 8)?
Answer: 5.21

Question: What about the “Feed intake, Mean” value ([4]; week 9) of the same molecule?
Answer: 5.29

Question: What about the “Feed intake, Mean” value ([4]; week 10) of the same molecule?
Answer: 5.64

Question: And the “HOMA-IR, Mean” value [5]?
Answer: 11.2^#

Question: And the “Insulin, Mean” value [5]?
Answer: 0.6 ng/mL

Question: And the “Kidney: Medullar apoptosis” value [6]?
Answer: 1

Question: What about the “Kidney: Medullar mineralization” value [6] of the same molecule?
Answer: 1

Question: And the “Kidney: NHL” value [6]?
Answer: 6

Question: What about the “Kidney: bowman's capsule hyperplasia” value [6] of the same molecule?
Answer: 2

Question: What about the “Kidney: pappillary mineralization” value [6] of the same molecule?
Answer: 0

Question: What about the “Liver: Apoptosis” value [6] of the same molecule?
Answer: 4

Question: What about the “Liver: Cytoplasmic glycogen” value [6] of the same molecule?
Answer: 0

Question: And the “Liver: Eosinophlic focus of cellular alteration” value [6]?
Answer: 3

Question: And the “Liver: Mononuclear cell infiltrate” value [6]?
Answer: 0

Question: And the “Liver: NHL” value [6]?
Answer: 5

Question: And the “Pancrease: Apoptosis” value [6]?
Answer: 0

Question: And the “Pancrease: NHL” value [6]?
Answer: 8

Question: What about the “Pancrease: islet degeneration” value [6] of the same molecule?
Answer: 1

Question: And the “Pancrease: islet hypertrophy” value [6]?
Answer: 0

Question: And the “Pancrease: islet, mononuclear cell infillitrate” value [6]?
Answer: 1

Question: What about the “Indoxyl sulfate, Mean” value [7] of the same molecule?
Answer: 2.5^# μg/mL

Question: What about the “CRE, Mean” value [8] of the same molecule?
Answer: 0.1 mg/dL

Question: And the “GLU, Mean” value [8]?
Answer: 335.6^# mg/dL

Question: And the “T-CHO, Mean” value [8]?
Answer: 139.0 mg/dL
